Source: PMC6452685, “Lysyl-tRNA synthetase as a drug target in malaria and cryptosporidiosis” (Proceedings of the National Academy of Sciences of the …, 2019)

How the values were obtained:
CpKRS = CpKRS (Cryptosporidium parvum, UniProt Q5CR27); assay: CpKRS SAR assay, luciferase ATP consumption (Kinase-Glo); assay type: biochemical
Description: (§1) We produced recombinant PfKRS1 (77–583 and 80–583), CpKRS (46-end), and HsKRS (full-length) proteins and developed biochemical assays based on the luciferase ATP consumption assay (Kinase-Glo; Promega) ([16]), which was suitable for the high-throughput screening, and the pyrophosphate generation assay (EnzChek) ([17]) format for kinetic characterization of the enzymes. The activities of recombinant enzymes were analyzed by monitoring only the first stage of the aminoacylation reaction. This reaction is suitable for high-throughput screening campaigns and makes the reaction more amenable for steady-state kinetic studies. By using the EnzChek assay, which monitors the production of pyrophosphate (when coupled with pyrophosphatase), Km values were obtained for PfKRS1, CpKRS, and HsKRS for ATP and L-lysine (Table 1 and SI Appendix, Fig. S1 and Table S1). […] This may be due to structural differences (see below) between the active sites of the parasite and human enzymes. […]
(§2) 2.7 PfKR S1, CpKRS and HsKR S S AR Ass ay Usin g L ucife r ase ATP C onsumption ( Kinase Glo ®) Inhi bi ti on of KRS acti vity by cl adospori n and other compou nds was assayed i n t he buffered me di um.
(§3) Each as s ay w el l was compos ed of b uffer (as des cri bed i n Ta bl e S3), 10 µM l ysi ne and ei ther 8.1 nM PfKRS1, 8.1 nM CpKRS or 6.6 nM HsKRS. […] The react i on w a s initiated by the addition of 2 µM ATP. The plate was incubated with shaking at 90 rpm and 30°C for 120 mi n. […] Maximum and minimum signal controls were included in each reaction plate. […] Analysis and calculation of inhibitors IC50 values were performed using Graphpad® Prism software (GraphPad S oftware, San Diego, CA). […]

PfKRS1 = PfKRS1 (Plasmodium falciparum, UniProt Q8IDJ8); assay: PfKRS1 SAR assay, luciferase ATP consumption (Kinase-Glo); assay type: biochemical; parameters: recombinant PfKRS1 (77–583 and 80–583); 6xHis (N); made in house; host or cells: E. coli Rosetta BL21(DE3), vector pAVA0421; settings: for IC50: Kinase-Glo assay
Description: as §1, §2, §3

CHI logD = assay type: physicochemical; settings: reversed-phase HPLC (Luna C18 column), pH 7.4
Description: targets. Thi s can be determi ned by ei ther l og D or Log P measurements, whi ch are tradi ti onal ly qui te time consuming and require quite large amounts of com pound to determine accurately.
The CHI Log D assay, fi rst descri bed by Valkό et a l. (17), has been adapt ed and perfo rmed at pH 7. […] An ali quot (10 µl) i s then i njected onto a Luna C18 col umn (Phenomenex, Maccl esfi el d, UK, 4.6 x 150 mm) wi th 5 µ m pa rti cl e size. Mobil e phase A (MPA) i s 50 mM ammoni um acetate (pH 7.4) and mobi l e Phase B (MPB) i s MeCN. The LC system used was a Dionex Ultimate 3000 HLPC where 10 0% MPA was hel d for the i ni ti al 1.5 mi n of the run, then a l i near gradi ent to 0% MPA takes pl ace over the next 10 mi n bef ore being held there fo r a furthe r 2. 5 mi n bef ore re-eq uilibration back to 100% MPA at 14 min with data collection continuing until 1 5 mi n. Flow rate was 1 ml/mi n w i t h det ecti on at 25 4 nm U V and ambi ent t emperat ure.
The ret ent i on t i me (t R) of t he unk nown drug is interpolated from the slope and intercept created us i ng ret ent i on t i mes of s t andard mi x t ure c o mponent s cont ai ni ng paracet amol , t heophy l l i ne, caffei ne, benzi mi dazol e, col chi ci ne, carbamazepi ne, i ndol e, propi ophenone, b uty rophen one , valerophenone and hepatophenone (prepared at 10 µg/ml in MeCN:water [1/1, by v ol ume]), w hi ch cov ers the C HI l og D rang e from -1 t o 4. […]
4.4 Int r ins ic C le ar ance (CLi) experiments
The mous e an d h uman c ry opres erv ed he pat ocy t es w ere s uppl i ed by Xenot ech (bat ches M C 53 9 n a HUE50H ). The procedure was carried out as reported prev i ous l y (15). […] Immediately, at time zero, then at 3, 6, 9, 15 and 30 min an aliquot ( 50 μl) o f the i ncubati on mi x ture was remov ed and mi x ed with acetonitrile (100 μl) contai ni ng i nternal s tandard to stop the reaction. […] XLfi t software (I DBS, Guildford UK) was used to cal cul ate the exponenti al decay and consequentl y the rate cons tant (ke-1) from the rati o of peak area of tes t compou nd to i nternal s tandard at each ti me poi nt . […]

Sequence of CpKRS (Q5CR27 entry or part of it): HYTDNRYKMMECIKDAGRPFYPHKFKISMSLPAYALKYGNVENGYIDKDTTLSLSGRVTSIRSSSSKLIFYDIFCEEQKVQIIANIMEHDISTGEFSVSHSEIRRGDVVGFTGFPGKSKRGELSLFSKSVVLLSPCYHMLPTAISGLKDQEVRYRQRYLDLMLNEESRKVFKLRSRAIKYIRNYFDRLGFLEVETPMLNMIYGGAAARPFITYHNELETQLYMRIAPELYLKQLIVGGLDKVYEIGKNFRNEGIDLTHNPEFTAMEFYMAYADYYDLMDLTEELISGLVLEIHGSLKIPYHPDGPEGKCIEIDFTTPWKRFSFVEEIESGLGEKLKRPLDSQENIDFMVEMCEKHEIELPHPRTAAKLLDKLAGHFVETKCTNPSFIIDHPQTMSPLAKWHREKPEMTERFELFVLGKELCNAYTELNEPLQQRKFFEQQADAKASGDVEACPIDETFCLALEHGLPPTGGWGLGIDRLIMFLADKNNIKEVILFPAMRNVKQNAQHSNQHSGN
Sequence of PfKRS1 (Q8IDJ8 77-583): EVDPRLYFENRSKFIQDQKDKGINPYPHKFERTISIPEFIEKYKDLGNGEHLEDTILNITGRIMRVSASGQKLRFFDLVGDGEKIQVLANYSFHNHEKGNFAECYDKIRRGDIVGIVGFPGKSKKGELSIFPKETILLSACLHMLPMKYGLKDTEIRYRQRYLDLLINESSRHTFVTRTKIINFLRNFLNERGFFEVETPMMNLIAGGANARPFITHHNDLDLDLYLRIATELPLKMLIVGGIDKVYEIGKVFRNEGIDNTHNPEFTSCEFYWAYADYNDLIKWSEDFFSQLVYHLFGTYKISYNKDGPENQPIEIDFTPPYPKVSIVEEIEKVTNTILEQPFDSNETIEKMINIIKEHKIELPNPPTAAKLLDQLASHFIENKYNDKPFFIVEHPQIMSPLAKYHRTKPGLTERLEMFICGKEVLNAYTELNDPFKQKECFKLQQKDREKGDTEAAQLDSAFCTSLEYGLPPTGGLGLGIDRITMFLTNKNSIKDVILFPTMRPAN

Row | SMILES | IC50 (CpKRS) | IC50 (PfKRS1) | chromatographic logD (CHI logD) | selectivity ratio for HsKRS/PfKRS1 (PfKRS1; in Kinase-Glo)
1 | O=C(NCC1CCCCC1)c1cc(=O)c2ccccc2o1 [Compound 2] | 22 nM | 4 nM | 2.9 | 
2 | C[C@H]1CCC[C@H](C[C@H]2Cc3cc(O)cc(O)c3C(=O)O2)O1 [Compound 1, cladosporin, reference compound] | 38 nM | 4 nM | 2.4 | 
3 | O=C(NCC1CCCCC1)c1cc(=O)c2cc(F)ccc2o1 [Compound 3] | 39 nM | 14 nM |  | 
4 | O=C(NCC1(O)CCCCC1)c1cc(=O)c2cc(F)ccc2o1 [Compound 4] | 8 nM | 5 nM |  | 
5 | O=C(NCC1(O)CCC(F)(F)CC1)c1cc(=O)c2cc(F)ccc2o1 [Compound 5] | 130 nM | 15 nM | 1.7 | 120 fold
